# Measurements as given in US20110301102A1, “COMPOSITIONS AND METHODS FOR TREATING MYELODYSPLASTIC SYNDROME” (Telik, Inc., priority 2010, published 2011).
# What was measured:
# [1] = system: patients with MDS (IPSS low and intermediate-1 risk); assay: Clinical study of Telintra (ezatiostat hydrochloride) in patients with MDS, two dosing schedules; settings: for patients with significant RBC transfusion reduction: 5 of 11 patients
# Protocol: Eighty-seven patients were randomized and treated at 23 investigational sites. After initial dose ranging in 14 patients, two dose levels were selected for further study. Subsequently, 37 patients were treated at 3 grams daily for two weeks followed by a one week rest period, and 36 patients were treated at 2 grams daily for three weeks followed by a one week rest period. The data on these 73 patients was pooled for this preliminary analysis.
# The median age was 72 years, with a patient population distribution of International Prognostic Scoring System (IPSS) low risk (23 patients, 32%) and intermediate-1 risk (50 patients, 68%).
# [2] = system: patients with MDS (IPSS low and intermediate-1 risk); settings: one patient (Quddus et al.); cited from earlier work
compound,measurement,setting,value
"CCOC(=O)[C@@H](N)CCC(=O)N[C@@H](CSCc1ccccc1)C(=O)N[C@@H](C(=O)OCC)c1ccccc1 [Telintra®, ethyl (2S)-2-amino-5-[[(2R)-3-benzylsulfanyl-1-[[(1R)-2-ethoxy-2-oxo-1-phenylethyl]amino]-1-oxopropan-2-yl]amino]-5-oxopentanoate]","Duration of HI-E Response, Median (95% CI)",[1]; 1 g b.i.d. (2 grams per day) 3 weeks on & 1 week off,46.1 (10.0-46.1) Weeks
same,"Duration of HI-E Response, Median (95% CI)",[1]; 1.5 g b.i.d. (3 grams per day) 2 weeks on & 1 week off,18.4 (3.1-51.0) Weeks
same,patients achieving RBC transfusion independence,"[1]; 4 of 38 RBC transfusion-dependent patients, pooled",11%
same,"patients with clinically significant RBC transfusion reductions (reduction of 4 U/8 weeks, IWG 2006)","[1]; 11 of 38 RBC transfusion-dependent patients, pooled",29%
same,effect of prior DMTI treatment on GI adverse events,[1]; all patients treated,increased incidence of GI AEs
same,"incidence of diarrhea, Grade 1",[1]; all patients treated,25%
same,"incidence of diarrhea, Grade 2",[1]; all patients treated,7%
same,"incidence of diarrhea, Grade 3",[1]; all patients treated,3%
same,"incidence of nausea, Grade 1",[1]; all patients treated,45%
same,"incidence of nausea, Grade 2",[1]; all patients treated,16%
same,"incidence of nausea, Grade 3",[1]; all patients treated,1%
same,"incidence of vomiting, Grade 1",[1]; all patients treated,30%
same,"incidence of vomiting, Grade 2",[1]; all patients treated,12%
same,"incidence of vomiting, Grade 3",[1]; all patients treated,2%
same,number of cytogenetic complete responses,"[1]; all patients, pooled",three
same,effect of prior Revlimid treatment on HI-E response,[1]; logistic regression analysis,enhance HI-E response
same,change in the odds for a HI-E response with prior DMTI treatment,"[1]; logistic regression analysis, p=0.023",five-fold decrease
same,patients with significant RBC transfusion reduction,"[1]; no prior Revlimid, no prior DMTI",45%
same,number of patients with complete cytogenetic response,[1]; of the four patients with del 5q minus,two
same,patients achieving transfusion independence,"[1]; prior Revlimid, no prior DMTI, 3 of 11 patients",27%
same,patients with significant RBC transfusion reduction,"[1]; prior Revlimid, no prior DMTI",45%
same,duration of complete remission following discontinuation of therapy,[2],more than 12 months
